Data taken from patent publication US12570647B2 (Saint Louis University, priority 2021, dated 2026).
In brackets after ≈: the same amount, converted by molar mass. Read-outs that look alike come from different tables or passages of the source.

Legend:
[1] = tested on: S. aureus ATCC 25923; parameters: key: R: resistance; S: sensitive; I: intermediate; conditions: Table 2; cited from earlier work
[2] = tested on: S. aureus AR222; parameters: key to Antibiotic susceptibility (R/S/I): R: resistance; S: sensitive; I: intermediate; conditions: S. aureus AR222 (CDC strain), cited from earlier work; for Antibiotic susceptibility (R/S/I): Table 2
[3] = tested on: S. aureus AR217; parameters: key to Antibiotic susceptibility (R/S/I): R: resistance; S: sensitive; I: intermediate; conditions: S. aureus AR217 (CDC strain), cited from earlier work; for Antibiotic susceptibility (R/S/I): Table 2
[4] = tested on: S. aureus AR215; parameters: key to Antibiotic susceptibility (R/S/I): R: resistance; S: sensitive; I: intermediate; conditions: S. aureus AR215 (CDC strain), cited from earlier work; for Antibiotic susceptibility (R/S/I): Table 2
[5] = tested on: S. aureus AR217 (MRSA, multidrug-resistant strain); assay: S. aureus MIC80 determination, broth microdilution (CLSI) in CAMHB; type: cell-based; conditions: Staphylococcus aureus, MRSA, Table 2
Experimental: (§1) S. Aureus MIC80 determinations in S. aureus ATCC25923 or in multidrug-resistant strains AR215, AR217 and AR255. MIC80's were determined by the broth microdilution method recommended by the Clinical and Laboratory Standards Institute (CLSI) in Cation-adjusted Mueller-Hinton broth (CAMHB). (Cao et al., 2018). In the preliminary screening, three compound concentrations were used: 5.8, 20.4, and 71.4 μM; for quantitative MIC80 measurements, a 1.5-fold dilution series of the compounds was prepared in CAMHB. Overnight bacterial culture was added to the diluted compounds in a 96-well plate after adjusting the bacterial concentration to achieve a 5×10^5 CFU/mL final concentration. After 16-24 h incubation at 35±2° C., the plates were read at 600 nm in a microplate reader. The MIC80 was defined as the concentration of an antibacterial agent that inhibited bacteria growth ≥80% compared to vehicle-treated control cultures. All values were determined at least twice independently, and the average number is reported.
(§2) AR215, AR217, and AR222 were obtained from the Centers for Disease Control and Prevention (CDC). AR215 and AR217 are cefoxitin-screen positive (resistant to cefoxitin) and resistant to oxacillin, which are MRSA strains. AR215 is also resistant to clindamycin, erythromycin, levofloxacin, and penicillin. AR217 is also resistant to levofloxacin, penicillin, and Trimethoprim-sulfamethoxazole. AR222 is only resistant to penicillin.

[6] = tested on: S. aureus AR222; assay: as above; type: cell-based; conditions: Staphylococcus aureus, Table 2
Experimental: as §1, §2

[7] = tested on: S. aureus AR215 (MRSA, multidrug-resistant strain); assay: as above; type: cell-based; conditions: Staphylococcus aureus, MRSA, Table 2
Experimental: as §1, §2

[8] = tested on: S. aureus ATCC25923; assay: as above; type: cell-based; conditions: Staphylococcus aureus, ATCC25923, S. aureus ATCC 25923
Experimental: as §1

[9] = Table 1, growth inhibition ≥80% vs vehicle, 16-24 h, read-out: ATCC 25923 MIC80

Compound: CCCCCCCCCC(=O)N[C@@H](Cc1c[nH]c2ccccc12)C(=O)N[C@H](CC(N)=O)C(=O)N[C@@H](CC(=O)O)C(=O)N[C@@H]1C(=O)NCC(=O)N[C@@H](CCCN)C(=O)N[C@@H](CC(=O)O)C(=O)N[C@H](C)C(=O)N[C@@H](CC(=O)O)C(=O)NCC(=O)N[C@H](CO)C(=O)N[C@@H]([C@H](C)CC(=O)O)C(=O)N[C@@H](CC(=O)c2ccccc2N)C(=O)O[C@@H]1C [DAP, Daptomycin]
- Antibiotic susceptibility (R/S/I) [1]: S
- Antibiotic susceptibility (R/S/I) [2]: S

Compound: CC[C@H]1OC(=O)[C@H](C)[C@@H](O[C@H]2C[C@@](C)(OC)[C@@H](O)[C@H](C)O2)[C@H](C)[C@@H](O[C@@H]2O[C@H](C)C[C@H](N(C)C)[C@H]2O)[C@](C)(O)C[C@@H](C)C(=O)[C@H](C)[C@@H](O)[C@]1(C)O [ERY, Erythromycin]
- Antibiotic susceptibility (R/S/I) [1]: S
- Antibiotic susceptibility (R/S/I) [3]: S
- Antibiotic susceptibility (R/S/I) [2]: S
- Resistance of the strain to the antibiotic [4]: resistant
- Antibiotic susceptibility (R/S/I) [4]: R

Compound: Cc1ccc(C(=O)N(CCCn2ccnc2)c2nc3c(C)cc(Cl)cc3s2)o1 [Example 4, N-(3-(1H-imidazol-1-yl)propyl)-N-(6-chloro-4-methylbenzo[d]thiazol-2-yl)-5-methylfuran-2-carboxamide]
- MIC80 [5]: 5.9 µM (≈ 2.45 µg/mL)
- MIC80 [6]: 0.78 µM (≈ 0.324 µg/mL)
- MIC80 [7]: 8.9 µM (≈ 3.69 µg/mL)
- MIC80 [8, 9]: 2.6 µM (≈ 1.08 µg/mL)
- MIC80 ([8]; Table 2, read-out: MIC80): 0.78 µM (≈ 0.324 µg/mL)

Compound: Cc1cc(Cl)cc2sc(N(CC3CCCNC3)C(=O)C3CC3)nc12 (stereo not drawn) [Example 42, N-(6-chloro-4-methyl-1,3-benzothiazol-2-yl)-N-[(piperidin-3-yl)methyl]cyclopropanecarboxamide]
- MIC80 [8, 9]: 66.7 µM (≈ 24.3 µg/mL)

Compound: Cc1cc(Cl)cc2sc(N(CCC3CCNCC3)C(=O)C3CC3)nc12 [Example 43, N-(6-chloro-4-methyl-1,3-benzothiazol-2-yl)-N-[2-(piperidin-4-yl)ethyl]cyclopropanecarboxamide]
- MIC80 [8, 9]: 100 µM (≈ 37.8 µg/mL)

Compound: Cc1cc(Cl)cc2sc(N(CCCn3cccc3)C(=O)c3ccco3)nc12 [Example 44, N-(6-chloro-4-methyl-1,3-benzothiazol-2-yl)-N-[3-(1H-pyrrol-1-yl)propyl]furan-2-carboxamide]
- MIC80 [8, 9]: > 100 µM

Compound: Cc1cc(Cl)cc2sc(N(C[C@H]3CC[C@H](N)CC3)C(=O)C3CC3)nc12 [Example 45, N-(6-chloro-4-methyl-1,3-benzothiazol-2-yl)-N-{[(1r,4r)-4-aminocyclohexyl]methyl}cyclopropanecarboxamide]
- MIC80 [8, 9]: 19.8 µM (≈ 7.48 µg/mL)

Compound: NCc1cccc2sc(N(CCCn3ccnc3)C(=O)c3ccco3)nc12 [Example 46, N-[4-(aminomethyl)-1,3-benzothiazol-2-yl]-N-[3-(1H-imidazol-1-yl)propyl]furan-2-carboxamide]
- MIC80 [8, 9]: > 100 µM

Compound: NCc1cccc2sc(N(CCCn3ccnc3)C(=O)C3CCC3)nc12 [Example 47, N-[4-(aminomethyl)-1,3-benzothiazol-2-yl]-N-[3-(1H-imidazol-1-yl)propyl]cyclobutanecarboxamide]
- MIC80 [8, 9]: > 100 µM

Compound: NCc1cccc2sc(N(CCCn3ccnc3)C(=O)C3CC3)nc12 [Example 48, N-[4-(aminomethyl)-1,3-benzothiazol-2-yl]-N-[3-(1H-imidazol-1-yl)propyl]cyclopropanecarboxamide]
- MIC80 [8, 9]: > 100 µM

Compound: NCc1ccc2nc(N(CCCn3ccnc3)C(=O)c3ccco3)sc2c1 [Example 49, N-[6-(aminomethyl)-1,3-benzothiazol-2-yl]-N-[3-(1H-imidazol-1-yl)propyl]furan-2-carboxamide]
- MIC80 [8, 9]: > 100 µM

Compound: NCc1ccc2nc(N(CCCn3ccnc3)C(=O)C3CCC3)sc2c1 [Example 50, N-[6-(aminomethyl)-1,3-benzothiazol-2-yl]-N-[3-(1H-imidazol-1-yl)propyl]cyclobutanecarboxamide]
- MIC80 [8, 9]: > 100 µM

Compound: NCc1ccc2nc(N(CCCn3ccnc3)C(=O)C3CC3)sc2c1 [Example 51]
- MIC80 [8, 9]: > 100 µM

Compound: O=C(c1ccco1)N(CCCn1ccnc1)c1nc2ccc(Cl)nc2s1 [Example 52, N-{5-chloro-[1,3]thiazolo[5,4-b]pyridin-2-yl}-N-[3-(1H-imidazol-1-yl)propyl]furan-2-carboxamide]
- MIC80 [8, 9]: > 100 µM

Compound: O=C(C1CC1)N(CCCn1ccnc1)c1nc2ccc(Cl)nc2s1 [Example 53, N-{5-chloro-[1,3]thiazolo[5,4-b]pyridin-2-yl}-N-[3-(1H-imidazol-1-yl)propyl]cyclopropanecarboxamide]
- MIC80 [8, 9]: > 100 µM

Compound: Cc1nc(Cl)cc2sc(N(CCCn3ccnc3)C(=O)c3ccco3)nc12 [Example 54, N-{6-chloro-4-methyl-[1,3]thiazolo[4,5-c]pyridin-2-yl}-N-[3-(1H-imidazol-1-yl)propyl]furan-2-carboxamide]
- MIC80 [8, 9]: > 100 µM

Compound: Cc1nc(Cl)cc2sc(N(CCCn3ccnc3)C(=O)C3CC3)nc12 [Example 55, N-{6-chloro-4-methyl-[1,3]thiazolo[4,5-c]pyridin-2-yl}-N-[3-(1H-imidazol-1-yl)propyl]cyclopropanecarboxamide]
- MIC80 [8, 9]: 100 µM (≈ 37.6 µg/mL)

Compound: Cc1cc(Cl)cc2sc(N(CC3CCN(C(=O)OC(C)(C)C)CC3)C(=O)C3CCC3)nc12 [Example 56]
- MIC80 [8, 9]: > 100 µM

Compound: Cc1cc(Cl)cc2sc(N3CCC(CNC(=O)OC(C)(C)C)CC3)nc12 [Example 57]
- MIC80 [8, 9]: > 100 µM

Compound: Cc1cc(Cl)cc2sc(N3CCC(NC(=O)OC(C)(C)C)CC3)nc12 [Example 58]
- MIC80 [8, 9]: > 100 µM

Compound: Cc1cc(Cl)cc2sc(N3CCN(C(=O)OC(C)(C)C)CC3)nc12 [Example 59]
- MIC80 [8, 9]: > 100 µM

Compound: Cc1cc(Cl)cc2sc(N(CCCn3ccnc3)C(=O)C(C)N)nc12 (stereo not drawn) [Example 60]
- MIC80 [8, 9]: > 100 µM

Compound: Cc1cc(Cl)cc2sc(NC(=O)C3CC3)nc12 [Example 61]
- MIC80 [8, 9]: > 100 µM

Compound: Cc1cc(Cl)cc2sc(NC(=O)c3ccco3)nc12 [Example 62]
- MIC80 [8, 9]: > 100 µM

Compound: CO[C@@]1(NC(=O)Cc2cccs2)C(=O)N2C(C(=O)O)=C(COC(N)=O)CS[C@@H]21 [FOX, Cefoxitin]
- Resistance of the strain to the antibiotic [3]: resistant
- Antibiotic susceptibility (R/S/I) [3]: R
- Antibiotic susceptibility (R/S/I) [2]: S
- Resistance of the strain to the antibiotic [4]: resistant
- Antibiotic susceptibility (R/S/I) [4]: R

Compound: CC(=O)NC[C@H]1CN(c2ccc(N3CCOCC3)c(F)c2)C(=O)O1 [LZD, Linezolid]
- Antibiotic susceptibility (R/S/I) [1]: S
- Antibiotic susceptibility (R/S/I) [3]: S
- Antibiotic susceptibility (R/S/I) [2]: S
- Antibiotic susceptibility (R/S/I) [4]: S

Compound: Cc1onc(-c2ccccc2)c1C(=O)N[C@@H]1C(=O)N2[C@@H]1SC(C)(C)[C@@H]2C(=O)O [OXA, Oxacillin]
- Antibiotic susceptibility (R/S/I) [1]: S
- Resistance of the strain to the antibiotic [3]: resistant
- Antibiotic susceptibility (R/S/I) [3]: R
- Antibiotic susceptibility (R/S/I) [2]: S
- Resistance of the strain to the antibiotic [4]: resistant
- Antibiotic susceptibility (R/S/I) [4]: R

Compound: CO[C@H]1/C=C/O[C@@]2(C)Oc3c(C)c(O)c4c(O)c(c(/C=N/N5CCN(C)CC5)c(O)c4c3C2=O)NC(=O)/C(C)=C\C=C\[C@H](C)[C@H](O)[C@@H](C)[C@@H](O)[C@@H](C)[C@H](OC(C)=O)[C@@H]1C [RIF, Rifampin]
- Antibiotic susceptibility (R/S/I) [1]: S
- Antibiotic susceptibility (R/S/I) [3]: S
- Antibiotic susceptibility (R/S/I) [2]: I
- Antibiotic susceptibility (R/S/I) [4]: S

Compound: CN[C@H](CC(C)C)C(=O)N[C@H]1C(=O)N[C@@H](CC(N)=O)C(=O)N[C@H]2C(=O)N[C@H]3C(=O)N[C@H](C(=O)N[C@H](C(=O)O)c4cc(O)cc(O)c4-c4cc3ccc4O)[C@H](O)c3ccc(c(Cl)c3)Oc3cc2cc(c3O[C@@H]2O[C@H](CO)[C@@H](O)[C@H](O)[C@H]2O[C@H]2C[C@](C)(N)[C@H](O)[C@H](C)O2)Oc2ccc(cc2Cl)[C@H]1O [VAN, Vancomycin]
- Antibiotic susceptibility (R/S/I) [1]: S
- Antibiotic susceptibility (R/S/I) [3]: I
- Antibiotic susceptibility (R/S/I) [2]: I
- Antibiotic susceptibility (R/S/I) [4]: I

Compound: Gentamicin
- Antibiotic susceptibility (R/S/I) [1]: S
- Antibiotic susceptibility (R/S/I) [3]: S
- Antibiotic susceptibility (R/S/I) [2]: S
- Antibiotic susceptibility (R/S/I) [4]: S

Compound: Penicillin
- Resistance of the strain to the antibiotic [3]: resistant
- Antibiotic susceptibility (R/S/I) [3]: R
- Resistance of the strain to the antibiotic [2]: resistant
- Antibiotic susceptibility (R/S/I) [2]: R
- Resistance of the strain to the antibiotic [4]: resistant
- Antibiotic susceptibility (R/S/I) [4]: R
